Target: T1, human AR (Homo sapiens, UniProt P10275)
T1 construct: expressed in transfected cells; host or cells: COS-1
T1 sequence (P10275 1-920): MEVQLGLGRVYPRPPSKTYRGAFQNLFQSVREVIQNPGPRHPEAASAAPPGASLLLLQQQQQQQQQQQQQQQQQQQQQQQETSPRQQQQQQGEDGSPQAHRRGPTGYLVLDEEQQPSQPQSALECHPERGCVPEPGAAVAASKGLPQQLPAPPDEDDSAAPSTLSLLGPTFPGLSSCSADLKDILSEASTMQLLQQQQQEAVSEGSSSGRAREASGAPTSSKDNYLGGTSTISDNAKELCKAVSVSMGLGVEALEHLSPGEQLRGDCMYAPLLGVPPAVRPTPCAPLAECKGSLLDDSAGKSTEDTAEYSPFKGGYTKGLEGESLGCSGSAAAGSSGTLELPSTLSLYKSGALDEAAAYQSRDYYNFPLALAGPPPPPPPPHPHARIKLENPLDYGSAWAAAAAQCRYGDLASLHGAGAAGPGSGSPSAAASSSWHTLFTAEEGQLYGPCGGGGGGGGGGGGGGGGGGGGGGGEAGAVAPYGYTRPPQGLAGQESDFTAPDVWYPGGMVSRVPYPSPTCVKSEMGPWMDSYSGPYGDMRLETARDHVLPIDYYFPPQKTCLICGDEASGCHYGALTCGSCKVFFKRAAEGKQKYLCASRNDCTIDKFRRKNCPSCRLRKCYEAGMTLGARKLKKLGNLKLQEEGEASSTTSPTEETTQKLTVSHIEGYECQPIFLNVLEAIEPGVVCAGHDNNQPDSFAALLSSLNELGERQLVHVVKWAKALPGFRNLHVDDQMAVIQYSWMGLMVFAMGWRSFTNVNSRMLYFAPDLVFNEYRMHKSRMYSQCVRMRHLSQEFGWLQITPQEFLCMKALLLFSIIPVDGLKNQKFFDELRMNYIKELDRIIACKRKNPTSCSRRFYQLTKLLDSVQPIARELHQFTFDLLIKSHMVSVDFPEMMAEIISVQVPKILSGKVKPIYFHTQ
Experiment: Competitive AR binding assay against [3H]-R1881 in transiently transfected COS-1 cells
Settings: Table 1; compound 13.4 μM; [3H]-R1881 1.34 nM; complete inhibition equals 100%
Procedure: Competitive AR Binding Assay.
AR binding was measured by a competitive assay against [^3H]-R1881 (PerkinElmer) in transiently transfected COS-1 cells. One day before transfection, COS-1 cells were seeded into 2 ml of DMEM (Dulbecco's modified Eagle medium, Gipco) with 10% dextran-charcoal-treated fetal bovine serum and 0.25% (vol/vol) Penicillin-Streptomysin (Euroclone) at a density of 140×10^3 cells/well. After medium change to DMEM 2.5% FBS, the cells were transfected for 24 hours with 10 ng/well of human AR expression vector pSG5 hAR by using the TransIT method (Micrus Bio TransIT LT1, Transfection Reagent). After 36 hours, the cells where treated with tested compounds using 10000 fold molarities compared to labelled R1881 (1.34 nM). After 2 hours of incubation at 37° C., the medium was removed. The cells were removed from the wells to 150 μl of 1× phosphate buffered saline (PBS), transferred to Eppendorf tubes and centrifuged at 4° C. using 4000×g for 5 min, and then washed twice with 150 μl of PBS. The cell pellets were dissolved to 50 μl of 0.5M NaOH and incubated for 15 min at 56° C., after which the samples (three replicates for each sample compound) were transferred to liquid twinkle tubes with 3 ml of OptiPhase HiSafe 3 twinkle solution (PerkinElmer) and radioactivity of AR-bound [^3H]-R1881 determined. The results were measured with LKB WALLAC 1214 racbeta equipment. The ability of test compounds to bind AR is reported as reduction in bound radioactivity obtained with 1.34 nM [^3H]-R1881.
The results (% inhibition) were calculated as: % inhibition=100−[100×(averagecompound/average[3H]-R1881)].

In order of falling “Inhibition of [3H]-R1881 binding at 1.34 nM ± S.D.” value:
1. CC1(Cc2ccccc2)CC(c2ccccc2Cl)=NO1 (centres unmarked) [Example 5b, 5-Benzyl-3-(2-chlorophenyl)-5-methyl-4,5-dihydroisoxazole]  59.7 ± 2.7%
2. COc1ccccc1C1=NOC(Cc2ccccc2)(c2ccccc2)C1 (single isomer, unassigned) [Example 12a, 5-Benzyl-3-(2-methoxyphenyl)-5-phenyl-4,5-dihydro-isoxazole]  55.9 ± 1.1%
3. O=[N+]([O-])c1ccc(C2=NOC3CCCCC23)cc1 (single isomer, unassigned) [Example 34a, 3-(4-Nitro-phenyl)-3a,4,5,6,7,7a-hexahydro-benzo[d]-isoxazole]  34.7 ± 2.7%
4. COc1ccccc1C1=NOC(Cc2ccccc2)(c2ccccc2)C1 (single isomer, unassigned) [Example 12b, 5-Benzyl-3-(2-methoxyphenyl)-5-phenyl-4,5-dihydro-isoxazole]  30.2 ± 6.0%
5. Clc1cccc(C2=NOC3CCCCC23)c1 (single isomer, unassigned) [Example 31a, 3-(3-Chloro-phenyl)-3a,4,5,6,7,7a-hexahydro-benzo[d]-isoxazole]  20.3 ± 9.9%
6. Fc1ccccc1C1=NOC2CCCCC12 (single isomer, unassigned) [Example 27a, 3-(2-Fluoro-phenyl)-3a,4,5,6,7,7a-hexahydro-benzo[d]-isoxazole]  17.0 ± 7.0%
7. CC(C)CN1C(c2ccc([N+](=O)[O-])cc2)=NOC1(C)Cc1ccccc1 (single isomer, unassigned) [Example 61b, 5-Benzyl-4-isobutyl-5-methyl-3-(4-nitro-phenyl)-4,5-dihydro-[1,2,4]oxadiazole]  0%
8. O=[N+]([O-])c1ccc(C2=NOC3CCCCC23)cc1 (single isomer, unassigned) [Example 34b, 3-(4-Nitro-phenyl)-3a,4,5,6,7,7a-hexahydro-benzo[d]-isoxazole]  0%
9. Clc1cccc(C2=NOC3CCCCC23)c1 (single isomer, unassigned) [Example 31b, 3-(3-Chloro-phenyl)-3a,4,5,6,7,7a-hexahydro-benzo[d]-isoxazole]  0%
10. COc1ccc(CC2=NOC(C)(Cc3ccccc3)N2CC(C)C)cc1 (single isomer, unassigned) [Example 65a, 5-Benzyl-4-isobutyl-3-(4-methoxy-benzyl)-5-methyl-4,5-dihydro-[1,2,4]oxadiazole]  0%
11. Fc1ccccc1C1=NOC2CCCCC12 (single isomer, unassigned) [Example 27b, 3-(2-Fluoro-phenyl)-3a,4,5,6,7,7a-hexahydro-benzo[d]-isoxazole]  0%

Same assay, conditions: Table 1; compound 13.4 μM; [3H]-R1881 1.34 nM; complete inhibition equals 100%; read-out: Inhibition of [3H]-R1881 binding at 1.34 nM ± S.D.

In order of falling inhibition at 13.4 µM:
1. CC1(Cc2ccccc2)CC(c2ccccc2F)=NO1 (centres unmarked) [Example 4ab, 5-Benzyl-3-(2-fluorophenyl)-5-methyl-4,5-dihydro-isoxazole]  69.9 ± 3.3%
2. CCCCN1C(c2cccc(Cl)c2)=NOC1(C)Cc1ccccc1 (centres unmarked) [Example 50a, 5-Benzyl-4-butyl-3-(3-chloro-phenyl)-5-methyl-4,5-dihydro-[1,2,4]oxadiazole]  63.8 ± 1.8%
3. CC1(Cc2ccccc2)CC(c2ccccc2Cl)=NO1 (centres unmarked) [Example 5a, 5-Benzyl-3-(2-chlorophenyl)-5-methyl-4,5-dihydroisoxazole]  42.7 ± 6.6%
4. CC1(Cc2ccccc2)CC(c2ccc(C#N)cc2)=NO1 (centres unmarked) [Example 8ab, 4-(5-Benzyl-5-methyl-4,5-dihydro-isoxazol-3-yl)-benzonitrile]  30.4 ± 2.9%
5. CCCCN1C(c2cccc3ccccc23)=NOC1(C)Cc1ccccc1 (centres unmarked) [Example 53ab, 5-Benzyl-4-butyl-5-methyl-3-napthalen-1-yl-4,5-dihydro-[1,2,4]oxadiazole]  29.8 ± 10.8%
6. CC(C)CN1C(CCc2ccccc2)=NOC1(C)Cc1ccccc1 (centres unmarked) [Example 66ab, 5-Benzyl-4-isobutyl-5-methyl-3-phenethyl-4,5-dihydro-[1,2,4]oxadiazole]  17.8 ± 2.4%
7. CC(C)CN1C(CCCc2ccccc2)=NOC1(C)Cc1ccccc1 (centres unmarked) [Example 68ab, 5-Benzyl-4-isobutyl-5-methyl-3-(3-phenyl-propyl)-4,5-dihydro-[1,2,4]oxadiazole]  14.7 ± 1%
8. CCCCN1C(CCc2ccc(OC)cc2)=NOC1(C)Cc1ccccc1 (centres unmarked) [Example 58ab, 5-Benzyl-4-butyl-3-[2-(4-methoxy-phenyl)-ethyl]-5-methyl-4,5-dihydro-[1,2,4]oxadiazole]  8.2 ± 1.3%

Target: T1, human AR
Experiment: AR antagonism assay: inhibition of transcriptional activation of AR (Probasin-luc reporter, COS-1 cells)
Assay type: cell-based
Settings: COS-1, 18 h, compound 10.0 μM; relative luciferase response: 100% for testosterone (no antiandrogenic effect), 0% for complete antagonism; read-out: AR antagonism against 100 nM testosterone ± S.D.
Procedure: Determination of the Antiandrogen Activity.
Testosterone was bought from Sigma Chemical Co. (St. Louis, Mo.) and hydroxyflutamide from Chemos GmbH. One day before transfection, COS-1 cells (from ATCC) were seeded into 1 ml of DMEM (Dulbecco's modified Eagle medium, Gibco) with 10% dextran-charcoal-treated fetal bovine serum and 0.25% (vol/vol) Penicillin-Streptomycin (Euroclone) at a density of 70×10^3 cells/well. After medium change to DMEM 2.5% FBS, the cells were transfected for 24 hours with 10 ng/well of human AR expression vector pSG5-hAR, 100 ng/well of reporter plasmid Probasin-luc, and 10 ng/well of control plasmid pCMV-β-gal by using the TransIT method (Micrus Bio TransIT LT1, Transfection Reagent). After the transfection, the cells received treatment of test compounds giving final concentration of 10 μM for each compound. In the antagonist test the wells were also treated with 100 nM final concentration of testosterone. After 18 hours, the cells were washed, lysed and assayed for luciferase and normalization for β-galactosidase activities and protein concentrations. The cells were washed with 100 μl of cold phosphate buffered saline (PBS) and lysed with 35 μl 1× Reporter lysis Buffer (Promega) and frozen (−70° C.) for 30 minutes. Cell lysates were placed in 1.5-ml propylene tubes and centrifuged at 13200×g for 5 minutes at room temperature. For β-galactosidase assay 10 μl of supernatant from each cell extract was transferred to a 96-well plate (96 well Elisa Microplates, PS, Microcon) and incubated for 10 minutes at 37° C. with 65 μl of reaction mixture consisting 0.76 μl 100×Mg-buffer, 12.5 μl ONPG (4 mg/ml), and 54.3 μl of sodium-phosphate buffer (pH 7). The reaction was stopped with treatment of 125 μl Na2CO3. For luciferase assay 10 μl of the supernatant was transferred to a 96-well plate (Greiner Microlon lumitrac 200) and treated with 30 μl of luciferase assay substrate solution (Promega Luciferase Assay System E1501). For the study of protein concentrations 5 μl of the supernatant was transferred to a 96-well plate (Elisa Microplates, PS, Microcon) and mixed with 200 μl of Bio-rad protein assay reagent. The luciferase activities were measured with Thermo Luminoscan Ascent scanner and the protein concentrations and β-galactosidase activities with Thermo Labsystem Multiscan Ex scanner. Also blank and control samples were measured. During the maintenance, transfection, and treatment with tested compounds the cells were incubated in humidified atmosphere with 5% carbon dioxide at 37° C.

In order of rising remaining activity at 10 µM:
1. Oc1ccc(C2=NOC3CCCCC23)cc1 (centres unmarked) [Example 26a, 4-(3a,4,5,6,7,7a-Hexahydro-benzo[d]isoxazol-3-yl)-phenol]  25.7 ± 5.5%
2. COc1ccccc1C1=NOC2CCCCC12 (centres unmarked) [Example 23ab, 3-(2-Methoxy-phenyl)-3a,4,5,6,7,7a-hexahydro-benzo[d]isoxazole]  40.9 ± 2.4%
3. O=[N+]([O-])c1ccc(C2=NOC3CCCCC23)cc1 (centres unmarked) [Example 34ab, 3-(4-Nitro-phenyl)-3a,4,5,6,7,7a-hexahydro-benzo[d]-isoxazole]  48 ± 6.7%

Same assay, conditions: compound 10.0 μM; relative luciferase response: 100% for testosterone (no antiandrogenic effect), 0% for complete antagonism

`Oc1ccc(C2=NOC3CCCCC23)cc1` (centres unmarked) [Example 26b, 4-(3a,4,5,6,7,7a-Hexahydro-benzo[d]isoxazol-3-yl)-phenol] was tested, and the “AR antagonism against 100 nM testosterone ± S.D.” value was 41.0 ± 1.6%.

— US9278942B2, “Non-steroidal compounds as androgen receptor modulators” (FLX Discoveries Oy, priority 2011, dated 2016)
